Measured values taken from ChEMBL document CHEMBL1156550, “Synthesis and pharmacological evaluation of pentacyclic 6a,7-dihydrodiindole and 2,3-dihydrodiindole derivatives as novel melatoninergic ligands” (Bioorg Med Chem, 2008).

How the values were obtained:
[1] = biological target: Melatonin receptor type 1A (Homo sapiens, UniProt P48039); experiment: Displacement of 2-[125I]iodomelatonin from human melatonin MT1 receptor expressed in CHO cells; assay type: cell-based
[2] = biological target: T1, Melatonin receptor type 1B (Homo sapiens, UniProt P49286); experiment: Displacement of 2-[125I]iodomelatonin from human melatonin MT2 receptor expressed in CHO cells; assay type: cell-based
T1 sequence (P49286 whole entry): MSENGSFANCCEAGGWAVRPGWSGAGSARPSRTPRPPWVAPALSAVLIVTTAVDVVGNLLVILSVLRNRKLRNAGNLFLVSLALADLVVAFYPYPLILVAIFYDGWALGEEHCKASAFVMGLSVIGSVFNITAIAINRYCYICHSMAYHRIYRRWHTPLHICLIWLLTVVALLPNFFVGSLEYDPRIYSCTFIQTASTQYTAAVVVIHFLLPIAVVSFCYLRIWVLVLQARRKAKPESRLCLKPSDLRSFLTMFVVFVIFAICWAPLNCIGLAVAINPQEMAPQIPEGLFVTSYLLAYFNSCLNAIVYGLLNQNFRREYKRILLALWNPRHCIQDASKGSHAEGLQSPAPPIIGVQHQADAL

Homo sapiens = species on record: Homo sapiens; experiment: Selectivity ratio of Ki for human melatonin MT1 receptor to Ki for human melatonin MT2 receptor

Melatonin receptor type 1A, sequence (P48039 whole entry): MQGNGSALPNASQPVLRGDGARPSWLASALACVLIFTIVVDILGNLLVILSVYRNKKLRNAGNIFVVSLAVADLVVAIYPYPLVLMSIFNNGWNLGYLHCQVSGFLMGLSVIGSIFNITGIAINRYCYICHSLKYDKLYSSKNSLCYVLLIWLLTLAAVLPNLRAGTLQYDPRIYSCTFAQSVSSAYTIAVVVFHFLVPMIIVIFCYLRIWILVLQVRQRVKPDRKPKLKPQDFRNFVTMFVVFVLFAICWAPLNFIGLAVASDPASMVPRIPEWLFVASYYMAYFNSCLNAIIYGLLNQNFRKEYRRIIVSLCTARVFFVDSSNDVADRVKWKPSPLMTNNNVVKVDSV

Ki [1]	Ki [2]	Ratio Ki (Homo sapiens)	Structure (SMILES)
9.8 nM	7.8 nM	1.25	COc1ccc2[nH]c(CN3c4ccccc4C[C@H]3CO)c(CCNC(C)=O)c2c1
1000 nM	1700 nM	–	CC(=O)NCCc1c2n(c3ccccc13)CC1Cc3ccccc3N1C2 (stereo unspecified)
17.5 nM	36.2 nM	0.48	COc1ccc2[nH]c(CN3c4ccccc4CC3CO)c(CCNC(C)=O)c2c1 (racemic)
34.5 nM	33.6 nM	1.03	COc1ccc2c(c1)CC(CO)N2Cc1[nH]c2ccc(OC)cc2c1CCNC(C)=O (racemic)
1800 nM	410 nM	–	COc1ccc2c(c1)CC1Cn3c(c(CCNC(C)=O)c4cc(OC)ccc43)CN21 (stereo unspecified)
319 nM	65.2 nM	4.89	COc1ccc2c(c1)c(CCNC(C)=O)c1n2CC2Cc3ccccc3N2C1 (stereo unspecified)
